Data from patent US12392781B2, “Deuterated indole heptamethine cyanine dyes” (University of Notre Dame du Lac, priority 2021, dated 2025).
“Also recorded” adds a separate entry of the source.

Experiments:
[1] = target: bovine serum albumin (BSA) (Bos taurus, UniProt P02769); experiment: Bovine serum albumin (BSA) binding by tryptophan fluorescence quenching titration; conditions: pH 7.4 PBS buffer, 37° C.; for Association constant Ka, titration isotherm fitted to 1:1 model: N=3
Experimental: The titration experiments measured quenching of bovine serum albumin (BSA, 1 mL of 2 μM solution in pH 7.4 PBS buffer) tryptophan fluorescence at 37° C. as dye was added incrementally. A fluorescence spectrum (ex: 280 nm, slit width: 2 nm) was acquired after each dye aliquot was added (2 μL of 1 mM dye stock solutions in water). After each aliquot addition, the solution was mixed and allowed to equilibrate at 37° C. for 5 min before spectral acquisition. Association constants were determined by plotting the change in fluorescence intensity at 345 nm verses molar equivalents using 1:1 binding stoichiometry on the BindFit software. Experiments were done in triplicates. Equations for determining association and dissociation constant are shown below:
[formula] [formula] where F is the fluorescence intensity of tryptophan after adding certain amount of dye, k is the proportionality constant for BSA tryptophan under the experimental condition, Ka is the association constant, [BSA]

[2] = Stability of 1.0 mM aqueous solutions stored at 4° C. in the dark (1H NMR); assay type: physicochemical; conditions: for Purity of aqueous solution: 1.0 mM
Experimental: After 7 days and 28 days (separate samples), 1 mL aliquots were taken from each stock solution, the solutions were lyophilized, the solid residue was dissolved in methanol-d4 and ^1H NMR spectra were acquired.
After 7 days and 28 days (separate samples), 1 mL aliquots were taken from each stock solution, the solutions were lyophilized, the solid residue dissolved in methanol-d4 and ^1H NMR spectra were acquired.

[3] = Photophysical properties at room temperature (absorption, fluorescence, quantum yield); assay type: physicochemical; conditions: for λ abs max / λ em max / ε: room temperature; for ε: Beer-Lambert fit 1-5 μM; for ΦF (fluorescence quantum yield): absolute (integrating sphere) for ICG, ICG-d5, ICG-d7, relative to ICG for 1; for Brightness: in M^-1 cm^-1 (unit assumed)
Experimental: Reagents and solvents were purchased from Sigma-Aldrich, VWR, Oakwood, Thermo Fisher and used without further purification unless stated otherwise. Column chromatography was performed using Biotage Sfär C18 Duo columns (part #FSUD-0401). Reverse- phase thin layer chromatography (TLC) experiments were performed on C18 TLC plates with F254s indicator (MilliporeSigma, part #1.15683). ^1H NMR spectra were recorded on a Bruker 500 NMR spectrometer. Chemical shifts are presented in ppm and referenced by residual solvent peak. High-resolution mass spectrometry (HRMS) was performed using a time-of-flight (TOF) analyzer with electrospray ionization (ESI), with sample dilution in water/acetonitrile as the standard produre. Electronic absorption spectra were recorded on an Evolution 201 UV/vis spectrometer with Thermo Insight software. Fluorescence spectra were collected on a Horiba Fluoromax-4 fluorometer with a maximum detection wavelength of 850 nm. Analyte solutions were prepared on the lab bench (exposed to air and light) using in HPLC grade water (Sigma-Aldrich), dimethylsulfoxide (Sigma-Aldrich), pH 7.4 1× phosphate buffered saline (Thermo Fisher) or fetal bovine serum (Sigma-Aldrich). Stock solutions for spectroscopy studies were prepared and used within 2 hours. All absorption and fluorescence spectra were collected using quartz cuvettes (1 mL, 1 cm path length).
Samples were excited at 730 nm with optical density≤0.05. First, photons were recorded with an integrating sphere after the excitation of a blank solvent reference, then the reference was replaced by a sample solution, and the spectrum (720-875 nm) was acquired again. The quantum yield was calculated by the equation below:
[formula] where P is the number of photons, F is the fluorescence intensity and E is the intensity at the excitation wavelength. Experiments were conducted in triplicate, with the reported absolute quantum yields corresponding to the mean value±standard deviation.
The fluorescence spectrum of each solution was obtained with excitation at 720 nm, and the integrated area was used to calculate the quantum yield according to the following equation:
[formula] where η is the refractive index of the solvent, I is the integrated fluorescence intensity, and A is the absorbance at a chosen wavelength. The estimated error for this method is ±15%.

[4] = Stability of 1.0 mM aqueous stock solutions at room temperature under low photon intensity storage (1H NMR, reverse phase TLC); conditions: for Stability of stored stock solution, ICG versus ICG-d5 (degradation to oxidative dimer): one week; for Stability of stored stock solution, ICG versus ICG-d5 (degradation to oxidative dimer) / Conversion to oxidative dimer: reverse phase TLC; for Conversion to oxidative dimer: 3-day old 1.0 mM stock solution, primarily in the dark at room temperature
Experimental: Every day, a 50 μL aliquot was removed from each stock solution, lyophilized, and stored as a solid at −20° C.
At each time point, a 1.0 mL aliquot was taken from the stock solution, the aliquot was lyophilized, the solid residue was dissolved in 0.60 mL of methanol-d4, and a ^1H NMR spectrum was acquired.
The solutions were stored at room temperature and low photon intensity conditions (only exposed to lab lights during sample preparation and when aliquots were removed from samples). After 72 h and 120 h, 1 mL aliquots were taken from each stock solution and lyophilized. In each case, the solid residue was dissolved in 0.6 mL of methanol-d4 and a ^1H NMR spectrum was recorded.
The second set of dye stability experiments were designed to mimic the low photon intensity storage conditions experienced by a typical reconstituted dose in water before it is administered in a clinical setting. Thus, stock solutions of the dyes were exposed to the atmosphere and laboratory lights during the initial reconstitution and periodic sampling, but otherwise stored as capped vials in the dark at room temperature.

[5] = cited from earlier work
[6] = 20 μg/mL solution in water, 24 hours; cited from earlier work
[7] = Photobleaching under high intensity irradiation (150 W Xenon lamp, 620 nm long-pass filter); conditions: 6 h irradiation, 1.0 mM or 0.05 mM in water or ethanol, TLC
[8] = 1.0 mM in water, room temperature, low photon intensity, storage 72 h, 1H NMR
[9] = 1.0 mM in water, room temperature, low photon intensity, storage 120 h, 1H NMR
[10] = 1.0 mM in water, room temperature

Sequence of bovine serum albumin (BSA) (P02769 25-607): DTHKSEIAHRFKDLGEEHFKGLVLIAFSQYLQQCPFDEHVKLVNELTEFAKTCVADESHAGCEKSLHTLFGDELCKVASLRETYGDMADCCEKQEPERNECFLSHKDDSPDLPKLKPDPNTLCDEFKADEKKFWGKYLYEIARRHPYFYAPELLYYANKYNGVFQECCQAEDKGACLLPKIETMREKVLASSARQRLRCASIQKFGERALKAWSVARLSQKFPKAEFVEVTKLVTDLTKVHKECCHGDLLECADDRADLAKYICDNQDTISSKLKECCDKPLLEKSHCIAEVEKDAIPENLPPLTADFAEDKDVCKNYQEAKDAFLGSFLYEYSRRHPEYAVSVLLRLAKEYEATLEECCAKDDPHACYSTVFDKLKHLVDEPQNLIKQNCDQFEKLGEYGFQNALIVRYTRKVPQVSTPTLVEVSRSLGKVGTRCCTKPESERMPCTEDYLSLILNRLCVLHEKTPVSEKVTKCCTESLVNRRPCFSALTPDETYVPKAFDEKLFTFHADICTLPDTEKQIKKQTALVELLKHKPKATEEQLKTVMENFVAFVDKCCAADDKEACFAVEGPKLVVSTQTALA

[2H]C(=C\C1=[N+](CCCCS(=O)(=O)[O-])c2ccc3ccccc3c2C1(C)C)/C([2H])=C([2H])/C([2H])=C([2H])/C=C1/N(CCCCS(=O)(=O)[O-])c2ccc3ccccc3c2C1(C)C.[Na+] [ICG-d5, Indocyanine Green-d5]
Association constant Ka, titration isotherm fitted to 1:1 model [1]: (3.8±0.6)×10^5 M^−1
Purity of aqueous solution ([2]; 7 days storage): 99%
Purity of aqueous solution ([2]; 28 days storage): 85%
Stability of stock solution in a refrigerator ([2]; 7 and 28 days): increased stability in a refrigerator
λ abs max ([3]; DMSO): 793 nm
λ em max ([3]; DMSO): 819 nm
ε ([3]; DMSO): 253,000 M^−1cm^−1
ΦF (fluorescence quantum yield) ([3]; DMSO): 19.8 ± 0.5%
Brightness ([3]; DMSO): 49,000
λ abs max ([3]; FBS): 796 nm
λ em max ([3]; FBS): 813 nm
ε ([3]; FBS): 205,000 M^−1cm^−1
ΦF (fluorescence quantum yield) ([3]; FBS): 10.5 ± 0.3%
Brightness ([3]; FBS): 21,000
Weight percentage remaining in aqueous stock solution [4, 8]: 86.0 ± 0.8 wt %
Weight percentage remaining in aqueous stock solution [4, 9]: 80.9 ± 1.2 wt %
Stability of stored stock solution, ICG versus ICG-d5 (degradation to oxidative dimer) [4, 10]: substantially more stable
Conversion to oxidative dimer [4]: ~2%

CC1(C)C(/C=C/C=C/C=C/C=C2/N(CCCCS(=O)(=O)[O-])c3ccc4ccccc4c3C2(C)C)=[N+](CCCCS(=O)(=O)[O-])c2ccc3ccccc3c21.[Na+] [ICG, Indocyanine Green, reference compound]
Association constant Ka, titration isotherm fitted to 1:1 model [1]: (3.4±0.5)×10^5 M^−1
Purity of aqueous solution ([2]; 7 days storage): 85%
Purity of aqueous solution ([2]; 28 days storage): 52%
λ abs max ([3]; DMSO): 795 nm
λ em max ([3]; DMSO): 820 nm
ε ([3]; DMSO): 224,000 M^−1cm^−1
ΦF (fluorescence quantum yield) ([3]; DMSO): 16.7 ± 0.6%
Brightness ([3]; DMSO): 37,000
λ abs max ([3]; FBS): 800 nm
λ em max ([3]; FBS): 813 nm
ε ([3]; FBS): 197,000 M^−1cm^−1
ΦF (fluorescence quantum yield) ([3]; FBS): 9.7 ± 0.4%
Brightness ([3]; FBS): 19,000
Water solubility [5]: 1000 µg/mL
ICG remaining [6]: 20%
Photostability versus concentration and solvent [7]: 1.0 mM ICG solution in water is more photostable than a 0.05 mM ICG solution in water
Effect of H2O2 on formation of oxidative dimer 1 ([4]; 1.0 mM in water, 5 h, H2O2 10 molar equivalents, TLC): higher amount of oxidative dimer 1
Effect of air and light exposure on formation of oxidative dimer 1 ([4]; 1.0 mM in water, 30 h, room temperature, TLC and NMR): inhibits formation of oxidative dimer 1
Effect of additives on dimerization to oxidative dimer 1 ([4]; 1 mM in water, additives 10 molar equivalents, 24 h, room temperature, low photon intensity, TLC): promoted by the presence of NaI; also recorded: stopped by base (NaHCO3 and NaOAc), singlet oxygen quencher (NaN3) and reductant (Na2SO3 and Na ascorbate)
Weight percentage remaining in aqueous stock solution [4, 8]: 73.6 ± 1.7 wt %
Weight percentage remaining in aqueous stock solution [4, 9]: 67.4 ± 1.0 wt %
Stability of stored stock solution, ICG versus ICG-d5 (degradation to oxidative dimer) [4, 10]: more degradation
Dimerization in water versus ethanol ([4]; 1.0 mM, 48 h, room temperature, low photon intensity, TLC): favored in water
Conversion to oxidative dimer [4]: ~20%
Degradation to oxidative dimer 1 versus concentration ([4]; water, different concentrations, 72 h, room temperature, low photon intensity, 1H NMR): slower at higher concentrations

CC1(C)C(=CC=CC=C(C=CC2=[N+](CCCCS(=O)(=O)[O-])c3ccc4ccccc4c3C2(C)C)C(C=CC2=[N+](CCCCS(=O)(=O)[O-])c3ccc4ccccc4c3C2(C)C)=CC=CC=C2N(CCCCS(=O)(=O)O)c3ccc4ccccc4c3C2(C)C)N(CCCCS(=O)(=O)O)c2ccc3ccccc3c21 [compound 1]
Kd ([1]; fluorescence titration, 2 μM BSA, read-out: Dissociation constant (Kd) of BSA binding): 34 µM
